Patent publication US20130203647A1, “DELIVERY OF H[…]” (UNIVERSITY COLLEGE LONDON, priority 2010, published 2013)
Non-standard residues stand in square brackets, D forms with d. Residues, ends and D or L forms follow the SMILES beside them. ξ: configuration not given here. *: point of attachment. Palmitoyl = CCCCCCCCCCCCCCCC(=O)*; ξY = NC(Cc1ccc(O)cc1)C(=O)O; ξR = N=C(N)NCCCC(N)C(=O)O; ξF = NC(Cc1ccccc1)C(=O)O; ξL = CC(C)CC(N)C(=O)O

Legend:
[1] = Pharmacokinetics: brain levels after intravenous administration (UPLC-MS/MS); assay type: in vivo; details: ICR (CD-1) mice, dalargin dose of 30 mg kg-1, FIG. 1
Method: (§1) ICR (CD-1) male out bred mice (18-24 g, 4 weeks old, Harlan, Oxon, UK) were used for the pharmacokinetics evaluations while ICR (CD-1) male out bred mice (22-28 g, 4-5 weeks old) were used for the pharmacodynamics evaluations. The animals were housed in groups of 5 in plastic cages in controlled laboratory conditions with ambient temperature and humidity maintained at ˜22° C. and 60% respectively with a 12-hour light and dark cycle (lights on at 7:00 and off at 19:00). Food and water were available ad libitum and the animals acclimatised for 5-7 days prior to any experiments in the Animal House, School of Pharmacy, University of London (London, UK). Animals were only used once and were acclimatised in the testing environment for at least 1 hour prior to testing. […]
Groups (n=5) of animals were administered either: NaCl (0.9% w/v), Dalargin, Dalargin-GCPQA, pDal and pDal-GCPQA. […] At various time points, animals were killed and their brain, liver and plasma analysed. […]
Brain and Liver were immediately frozen in liquid Nitrogen after being taken from the mouse. […] The brain and liver weights were determined and 2 mL water per g of brain was added to each (equivalent to 2 g of solvent to 1 g of brain). […]

mice = assay: Tail flick warm water bioassay (anti-nociception); assay type: in vivo; details: ICR (CD-1) mice, intravenous, dalargin dose of 15 mg kg-1, water at 55° C., FIG. 2
Method: as §1, with “UK).” for “UK). Animals were only used once and were acclimatised in the testing environment for at least 1 hour prior to testing.”
Anti-nociception was assessed in mice using the tail flick warm water bioassay (17, 18). […] The response latency times, in centiseconds, recorded for each mouse to withdraw its tail by a “sharp flick” were recorded using a digital stopwatch capable of measuring 1/100th of a second. […]
Two separate withdrawal latency determinations (separated by ≧20 sec) were averaged. […] Mice not responding within 5 sec were excluded from further testing (Baseline cut-off=5 seconds) and the baseline latency was measured for all mice 2 hours prior testing. […] Briefly, percent antinociception was calculated as 100%×(test latency-baseline latency)/(10 seconds-baseline latency). […]

CCCCCCCCCCCCCCCC(=O)Oc1ccc(CC(N)C(=O)N[C@H](C)C(=O)NCC(=O)NC(Cc2ccccc2)C(=O)NC(CC(C)C)C(=O)NC(CCCNC(=N)N)C(=O)O)cc1 (stereo partly drawn) [pDal, Palmitoyl Dalargin] (H-[ξY](Palmitoyl)[dA]G[ξF][ξL][ξR]-OH)
Detection in the brain (brain levels) [1]: detected in the brain

Dalargin
Detection in the brain (brain levels) [1]: not detected in the brain
Antinociceptive effect (% of Maximum Possible Effect, tail flick) (mice): unable to exert an antinociceptive effect
